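Assay format: 96-well plates, 48-hour exposure. Here, GI50 denotes the concentration required for 50% inhibition of growth. At the TGI there is no net growth.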
What was measured:
Assay in all cases: inhibition of tumour cell growth, NCI panel, 48 h
DU-145 prostate = test system: DU-145 prostate
KM12 colon = test system: KM12 colon
SK-MEL-28 melanoma = test system: SK-MEL-28 melanoma
MOLT-4 leukemia = test system: MOLT-4 leukemia
K-562 leukemia = test system: K-562 leukemia
NCI-H460 lung = test system: NCI-H460 lung
RXF 393 renal = test system: RXF 393 renal
MALME-3M melanoma = test system: MALME-3M melanoma
SK-OV-3 ovarian = test system: SK-OV-3 ovarian
HS 578T breast = test system: HS 578T breast
786-0 renal = test system: 786-0 renal
SR leukemia = test system: SR leukemia
SW-620 colon = test system: SW-620 colon
MCF7 breast = test system: MCF7 breast
SNB-75 CNS = test system: SNB-75 CNS
HL-60(TB) leukemia = test system: HL-60(TB) leukemia
T-47D breast = test system: T-47D breast
NCI-H226 lung = test system: NCI-H226 lung
U251 CNS = test system: U251 CNS
NCI-H23 lung = test system: NCI-H23 lung
HCC-2998 colon = test system: HCC-2998 colon
SF-539 CNS = test system: SF-539 CNS
SF-295 CNS = test system: SF-295 CNS
EKVX NSCLC = test system: EKVX NSCLC
A498 renal = test system: A498 renal
UO-31 renal = test system: UO-31 renal
OVCAR-8 ovarian = test system: OVCAR-8 ovarian
HCT-116 colon = test system: HCT-116 colon
OVCAR-4 ovarian = test system: OVCAR-4 ovarian
OVCAR-3 ovarian = test system: OVCAR-3 ovarian
MDA-MB-435 = test system: MDA-MB-435
HT29 colon = test system: HT29 colon
SN12C renal = test system: SN12C renal
A549 NSCLC = test system: A549 NSCLC
PC-3 prostate = test system: PC-3 prostate
OVCAR-5 ovarian = test system: OVCAR-5 ovarian
RPMI-8226 leukemia = test system: RPMI-8226 leukemia
LOX IMVI melanoma = test system: LOX IMVI melanoma
MDA-MB-231 breast = test system: MDA-MB-231 breast
HCT-15 colon = test system: HCT-15 colon
NCI/ADR-RES ovarian = test system: NCI/ADR-RES ovarian
SF-268 CNS = test system: SF-268 CNS
UACC-62 melanoma = test system: UACC-62 melanoma
SNB-19 CNS = test system: SNB-19 CNS
TK-10 renal = test system: TK-10 renal
SK-MEL-2 melanoma = test system: SK-MEL-2 melanoma
SK-MEL-5 melanoma = test system: SK-MEL-5 melanoma
HOP-92 NSCLC = test system: HOP-92 NSCLC
UACC-257 melanoma = test system: UACC-257 melanoma
NCI-H522 lung = test system: NCI-H522 lung
M14 melanoma = test system: M14 melanoma
ACHN renal = test system: ACHN renal
COLO 205 colon = test system: COLO 205 colon
CCRF-CEM leukemia = test system: CCRF-CEM leukemia
BT-549 breast = test system: BT-549 breast
IGROV1 ovarian = test system: IGROV1 ovarian

`CC1CCN(CCCCCOc2ccc3oc4cc(Cl)ccc4c(=O)c3c2)CC1` showed a GI50 (DU-145 prostate) of 7.14 µM, a TGI (DU-145 prostate) of 13.9 µM and a GI50 (KM12 colon) of 6.26 µM. The TGI (KM12 colon) was 14.4 µM, the GI50 (SK-MEL-28 melanoma) was 7.07 µM and the TGI (SK-MEL-28 melanoma) was 13.7 µM. The GI50 (MOLT-4 leukemia) was 2.87 µM, the TGI (MOLT-4 leukemia) was 10.3 µM and the GI50 (K-562 leukemia) was 1.58 µM. For the same compound, the TGI (K-562 leukemia) was 6.09 µM, the GI50 (NCI-H460 lung) was 6.63 µM and the TGI (NCI-H460 lung) was 13.9 µM. The GI50 (RXF 393 renal) was 5.75 µM, the TGI (RXF 393 renal) was 12.7 µM and the GI50 (MALME-3M melanoma) was 8.41 µM. For the same compound, the TGI (MALME-3M melanoma) was 15.3 µM, the GI50 (SK-OV-3 ovarian) was 8.45 µM and the TGI (SK-OV-3 ovarian) was 15.8 µM. The GI50 (HS 578T breast) was 7.32 µM, the TGI (HS 578T breast) was 17.8 µM and the GI50 (786-0 renal) was 6.29 µM. The TGI (786-0 renal) was 12.7 µM, the GI50 (SR leukemia) was 1.41 µM and the TGI (SR leukemia) was 5.18 µM. It also gave a GI50 (SW-620 colon) of 6.16 µM, a TGI (SW-620 colon) of 13.3 µM and a GI50 (MCF7 breast) of 5.9 µM. For the same compound, the TGI (MCF7 breast) was 14.2 µM, the GI50 (SNB-75 CNS) was 6.59 µM and the TGI (SNB-75 CNS) was 13 µM. It also gave a GI50 (HL-60(TB) leukemia) of 2.81 µM, a TGI (HL-60(TB) leukemia) of 10.5 µM and a GI50 (T-47D breast) of 6.86 µM. For the same compound, the TGI (T-47D breast) was 16.4 µM, the GI50 (NCI-H226 lung) was 9.42 µM and the TGI (NCI-H226 lung) was 20.2 µM. The GI50 (U251 CNS) was 5.69 µM, the TGI (U251 CNS) was 12.4 µM and the GI50 (NCI-H23 lung) was 7.36 µM. The TGI (NCI-H23 lung) was 14.6 µM, the GI50 (HCC-2998 colon) was 6.25 µM and the TGI (HCC-2998 colon) was 13.1 µM. For the same compound, the GI50 (SF-539 CNS) was 5.9 µM, the TGI (SF-539 CNS) was 12.3 µM and the GI50 (SF-295 CNS) was 6.8 µM. For the same compound, the TGI (SF-295 CNS) was 13.2 µM, the GI50 (EKVX NSCLC) was 7.03 µM and the TGI (EKVX NSCLC) was 14.3 µM. For the same compound, the GI50 (A498 renal) was 5.97 µM, the TGI (A498 renal) was 12.7 µM and the GI50 (UO-31 renal) was 5.7 µM. For the same compound, the TGI (UO-31 renal) was 11.8 µM, the GI50 (OVCAR-8 ovarian) was 7.95 µM and the TGI (OVCAR-8 ovarian) was 16 µM. For the same compound, the GI50 (HCT-116 colon) was 2.42 µM, the TGI (HCT-116 colon) was 7.86 µM and the GI50 (OVCAR-4 ovarian) was 6.22 µM. The TGI (OVCAR-4 ovarian) was 13.6 µM, the GI50 (OVCAR-3 ovarian) was 7 µM and the TGI (OVCAR-3 ovarian) was 14.2 µM. For the same compound, the GI50 (MDA-MB-435) was 1.55 µM, the TGI (MDA-MB-435) was 5.23 µM and the GI50 (HT29 colon) was 1.72 µM. It also gave a TGI (HT29 colon) of 6.2 µM, a GI50 (SN12C renal) of 6.49 µM and a TGI (SN12C renal) of 13.1 µM. For the same compound, the GI50 (A549 NSCLC) was 7.49 µM, the TGI (A549 NSCLC) was 14.4 µM and the GI50 (PC-3 prostate) was 6.89 µM. It also gave a TGI (PC-3 prostate) of 16.4 µM, a GI50 (OVCAR-5 ovarian) of 6.63 µM and a TGI (OVCAR-5 ovarian) of 13.5 µM. The GI50 (RPMI-8226 leukemia) was 5.73 µM, the TGI (RPMI-8226 leukemia) was 15.9 µM and the GI50 (LOX IMVI melanoma) was 4.18 µM. For the same compound, the TGI (LOX IMVI melanoma) was 10.9 µM, the GI50 (MDA-MB-231 breast) was 7.6 µM and the TGI (MDA-MB-231 breast) was 14.6 µM. It also gave a GI50 (HCT-15 colon) of 1.32 µM, a TGI (HCT-15 colon) of 4.1 µM and a GI50 (NCI/ADR-RES ovarian) of 8.14 µM. The TGI (NCI/ADR-RES ovarian) was 21.8 µM, the GI50 (SF-268 CNS) was 7.4 µM and the TGI (SF-268 CNS) was 15.8 µM. The GI50 (UACC-62 melanoma) was 2.24 µM, the TGI (UACC-62 melanoma) was 7.73 µM and the GI50 (SNB-19 CNS) was 8.03 µM. It also gave a TGI (SNB-19 CNS) of 15.2 µM, a GI50 (TK-10 renal) of 7.46 µM and a TGI (TK-10 renal) of 14.8 µM. It also gave a GI50 (SK-MEL-2 melanoma) of 9.3 µM, a TGI (SK-MEL-2 melanoma) of 17.5 µM and a GI50 (SK-MEL-5 melanoma) of 5.36 µM. It also gave a TGI (SK-MEL-5 melanoma) of 11.3 µM, a GI50 (HOP-92 NSCLC) of 6.51 µM and a TGI (HOP-92 NSCLC) of 14.8 µM. It also gave a GI50 (UACC-257 melanoma) of 1.33 µM, a TGI (UACC-257 melanoma) of 3.22 µM and a GI50 (NCI-H522 lung) of 9.09 µM. For the same compound, the TGI (NCI-H522 lung) was 18 µM, the GI50 (M14 melanoma) was 1.15 µM and the TGI (M14 melanoma) was 2.63 µM. It also gave a GI50 (ACHN renal) of 8.01 µM, a TGI (ACHN renal) of 14.7 µM and a GI50 (COLO 205 colon) of 6.09 µM. It also gave a TGI (COLO 205 colon) of 14.1 µM, a GI50 (CCRF-CEM leukemia) of 5.76 µM and a TGI (CCRF-CEM leukemia) of 14.2 µM. The GI50 (BT-549 breast) was 6.54 µM, the TGI (BT-549 breast) was 13.1 µM and the GI50 (IGROV1 ovarian) was 6.71 µM. For the same compound, the TGI (IGROV1 ovarian) was 15.3 µM.

Source: PubChem BioAssay (NCI)
